Test [1] deals with X^on splicing control element. Put plainly: Kinetics of eGFP induction with branaplam and RG7800-HCl, live cell imaging (Example 4). The format is cell-based. The note with it: for induced eGFP expression level compared with the constitutive construct: AAV-CAG-X^on-eGFP versus constitutive AAV-CAG-eGFP, inducer at optimal concentrations; for course of eGFP payload expression after induction: AAV-CAG-X^on-eGFP, monitored for 14, 28 or 84 hours. How it is done:
Cells were seeded in 96-well plates for 24 hours and transduced with AAV-CAG-X^on-eGFP or constitutive AAV-CAG-eGFP as the positive control, and treated with or without branaplam or RG7800-HCl. Fluorescent eGFP payload expression was monitored for a total of 14 hours (FIGS. 21A-21D) or 28 hours (FIGS. 22A-22D) by live cell imaging.

For test [2], the system named is X^on induction system. Put plainly: Dose studies with various inducer molecules, AAV-CAG-X^on-eGFP fluorescence (Example 3). It is filed as cell-based. The note with it: cells transduced with 1e^6 vg/cell AAV-CAG-X^on-eGFP; inducer added after 24 hours at 4 concentrations. How it is done:
Briefly, cells were seeded in black 96-well plates for 24 hours and transduced with 1e^6 vg/cell AAV-CAG-X^on-eGFP as described in Example 1. After 24 hours, each inducer was added directly into the cell media at 4 different concentrations each. Cells expressing the eGFP payload were visualized by fluorescent live imaging (20× magnification) after induction with branaplam (FIG. 20A) or RG7800 (FIG. 20B). Cells were counter-stained with […] Hoechst to identify nuclei and determine total cell counts for normalization. The number of eGFP-positive cells as well as the green fluorescence intensity was measured for each well and each condition up to 9 hours post-induction to determine the kinetics of the payload expression post-induction (FIGS. 20C-20H).

For test [3], the system named is X^on splicing control element. The experiment in a line: ON/OFF control of hIFNβ expression with branaplam, ELISA of supernatants (Example 7). It is filed as cell-based, human. To be noted: HEK293-T, AAV-CAG-X^on-hIFNβ, MOI 2.5e^5 vg/cell. As for the experimental part: Briefly, HEK293-T cells were transduced with an MOI of 2.5e^5 vg/cell of AAV-CAG-X^on-hIFNβ or constitutive AAV-CAG-hIFNβ for 24 hours. 24 hours post-transduction with AAV, branaplam was added to the cell media to induce human IFNβ (hIFNβ) expression (“ON”). After 24 hours, media supernatants were harvested for payload measurement and fresh media lacking Branaplam (“OFF”). 24 hours later, media supernatants were harvested for payload detection (FIG. 25A). Amounts of hIFNβ were measured in picograms per milliliter (pg/mL) (FIG. 26A) using an ELISA kit for hIFNβ in supernatants before and after induction with branaplam, and after removal of branaplam. FIG. 26B depicts the expression of hIFNβ following transduction with AAV-CAG-X^on-hIFNβ normalized to the levels of expression obtained with the constitutive payload.
(In general: An ELISA detects its analyte on a solid surface through an enzyme-linked reagent.)

The subject of test [4] is X^on splicing control element. Put plainly: ON/OFF control of fLuc expression with cycles of branaplam (Example 6). It is filed as cell-based, human. The note with it: HEK293-T, AAV-CAG-X^on-fLuc, MOI 2.5E5 vg/cell. As for the experimental part:
HEK293-T cells were transduced with AAV and then branaplam, and after 24 hours of induction with branaplam, supernatants were harvested and assayed for luciferase expression, and the media was replaced with fresh medium without branaplam. Supernatants for the next timepoint were then harvested after 24 hours in the condition without branaplam, and the cycle was repeated (e.g., one or two or more times; FIG. 25A). Briefly, HEK293-T cells were transduced with an MOI of 2.5E5 vg/cell of AAV-CAG-X^on-fLuc (FIG. 25B) for 24 hours, followed by addition of branaplam at 3 different concentrations at hour 24 for an additional 24 hours (“ON”). Supernatants were then harvested for the measurement of fLuc, and media was replaced with fresh media lacking branaplam (“OFF”) for 24 hours. Supernatants were harvested after 24 hours in the OFF state. fLuc luminescent signal was measured for each cycle in sample supernatants at each time point and condition described (FIG. 25C).

Test [5] deals with X^on splicing element. Put plainly: Inducible AAV-GFP / AAV-eGFP expression after the inducer branaplam, live fluorescent imaging (Example 2). To be noted: HEK293-T cells transduced with AAV-CAG-X^on-eGFP, branaplam 125 nM. It is filed as cell-based, human. An excerpt: Adherent human HEK293-T cells were transduced with inducible AAV-GFP, followed by fluorescent imaging for GFP expression pre- and post-administration of an inducer molecule (e.g., branaplam). The data is seen in FIG. 17.
Adherent human HEK293-T cells were transduced with AAV-GFP at varying dosages, followed by administration of an inducer molecule (e.g., branaplam), and monitored for GFP expression over several hours to determine initial expression kinetics at different AAV dosages in vitro. The data is seen in FIG. 19.
In a similar set of experiments, HEK293-T cells were plated in a 96-well plate for 24 hours and transduced with a broad range of multiplicity of infection (MOI) using a constitutively-expressing payload expression construct, AAV-CAG-eGFP, to determine the necessary MOI for detectable eGFP expression prior to advancing to the inducible constructs described in Example 1. MOIs tested ranged from 3E4 to 4E6 vg/cell. Transduction efficacy was assessed by measuring the eGFP payload expression from transduced cells using a fluorescent microscopy imager (FIG. 18). Once an MOI was selected, the inducible AAV-CAG-X^on-eGFP was tested with an inducer molecule, branaplam at 125 nM, 24 hours post-transduction. […] Control cells were transduced with AAV-CAG-X^on-eGFP without the addition of an inducer. […]

SMILES strings stand for the structures. Bounds are passed on as bounds.

Turning to `CCc1nc(C)cn2nc(-c3cc(=O)n4cc(C5CCN(C)CC5)cc(C)c4n3)cc12.Cl` [RG7800-HCl], in test [1], the “induced eGFP expression level compared with the constitutive construct” value was “nearly the same levels of expression” and the “course of eGFP payload expression after induction” value was “continued to increase over the first 12 hours, followed by a slower increase to 24 hours”. For the same molecule, the “active concentration for induction of eGFP payload expression” value in test [2] turned out to be 20 µM.

`CCc1nc(C)cn2nc(-c3cc(=O)n4cc(C5CCN(C)CC5)cc(C)c4n3)cc12` [RG7800]: the “active concentration for induction of eGFP payload expression” value in test [2] came out at 20 µM.

Turning to `CC1(C)CC(Oc2ccc(-c3ccc(-c4cn[nH]c4)cc3O)nn2)CC(C)(C)N1` [branaplam], in test [3], the “number of repeat ON/OFF cycles on the same transduced cells” value was “up to 2 repeat cycles”. For the same molecule, in test [3] (ELISA of supernatant), the “time to induced expression of hIFNβ after induction” value is at most 24 h and the “time until hIFNβ expression stopped after removal of branaplam” value was at most 24 h. Moreover, in test [4], the “fLuc expression in OFF conditions (without branaplam for 24 hours)” value was “reliably reduced expression of the fLuc”; the “re-induction of fLuc expression achievable and detectable, number of cycles” value was “at least 2 full induction cycles”. Further, the “dose of branaplam needed to mediate reliable payload expression and cycle control” value in test [4] (3 concentrations, 24 hours ON / 24 hours OFF) is at least 200 nM. Also, in test [1], the “induced eGFP expression level compared with the constitutive construct” value is “nearly the same levels of expression” and the “course of eGFP payload expression after induction” value is “continued to increase over the first 12 hours, followed by a slower increase to 24 hours”. Besides, the “detectable GFP and eGFP expression, earliest time post-induction” value in test [5] (24 hours post-transduction, imaging every 30 minutes) was determined as 3 h. Besides, the “course of GFP and eGFP signal post-induction” value in test [5] (read up to 5 hours) is reported as “continuing to increase up to 5 hours post-induction”.

These data come from patent US20260137809A1, “GENE THERAPY VECTORS FOR TREATMENT OF CANCER” (Siren Biotechnology, Inc., priority 2022, published 2026).
